Data: patent US20260007601A1, “IONIZABLE CATIONIC LIPID COMPOUND AND COMPOSITION FOR DELIVERING NUCLEIC ACID AND USE THEREOF” (BEIJING YOUCAREKECHUANG PHARMACEUTICAL TECHNOLOGY CO., LTD., priority 2023, published 2026)
Several values for one entry are separate records, joined by “and”; a condition that tells them apart may be missing. Equal values may be shown once.

Tests used:
[1] = tested on: female BALB/C mice; assay: Mouse in vivo imaging of Fluc-mRNA LNP formulations; set-up: average radiation intensity (mRNA expression): unit not given here; settings: for average radiation intensity (mRNA expression): 10 μg Fluc-mRNA LNP intramuscularly
In short: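 Female BALB/C mice (4–6 weeks, 17–19 g) received LNP carrying 10 μg Fluc-mRNA intramuscularly. Imaging substrate given intraperitoneally at 6 h, 24 h, 48 h and 7 d; after 5 min free movement, average radiance read by IVIS Spectrum imaging.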

[2] = tested on: 293T cells; assay: Fluorescence detection of Fluc-mRNA (cell transfection efficiency of LNP formulations); type: cell-based
In short: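 293T cells at 10,000 per well, adhered overnight, then given LNPs carrying 0.3 μg Fluc-mRNA (cationic:neutral:structured:polymer-conjugated lipid 49:10:39.5:1.5 molar). After 24 h, luciferase signal read with luciferase kit reagents on an IVIS imaging system as transfection efficiency.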

[3] = Encapsulation rate, drug loading concentration and total RNA concentration detection (RiboGreen); type: physicochemical
[4] = LNP formulation of the named lipid

CCCCCCCCCCCOC(=O)CCCCCN(CCCCCCCC(=O)OCC(CCCCCCCC)CCCCCCCC)CCN(C)CCO [YK-202]
average radiation intensity, times that of ALC-0315 ([1]; 6 h): 3.48 times | average radiation intensity, times that of HHMA ([1]; 6 h): 4.59 times | average radiation intensity, times that of SM-102 ([1]; 6 h): 4.32 times | average radiation intensity, times that of compound 21 ([1]; 6 h): 4.89 times | average radiation intensity, times that of compound 23 ([1]; 6 h): 4.94 times | mRNA expression level, times that of YK-204 ([1]; 6 h): 83.29 times | mRNA expression level, times that of YK-223 ([1]; 6 h): 283.49 times | average radiation intensity (mRNA expression) ([1]; 6 h): 2935500 | expression level, times that of YK-215 ([1]; 6 hours): 58.06 times | expression level, times that of YK-217 ([1]; 6 hours): 119.40 times | average radiation intensity, times that of ALC-0315 ([1]; 24 h): 11.84 times | average radiation intensity, times that of HHMA ([1]; 24 h): 19.69 times | average radiation intensity, times that of SM-102 ([1]; 24 h): 18.64 times | average radiation intensity, times that of compound 21 ([1]; 24 h): 19.99 times | average radiation intensity, times that of compound 23 ([1]; 24 h): 19.47 times | mRNA expression level, times that of YK-204 ([1]; 24 h): 412.78 times | mRNA expression level, times that of YK-223 ([1]; 24 h): 1208.76 times | average radiation intensity (mRNA expression) ([1]; 24 h): 2158840 | expression level, times that of YK-215 ([1]; 24 hours): 316.78 times | expression level, times that of YK-217 ([1]; 24 hours): 814.66 times | average radiation intensity, times that of ALC-0315 ([1]; 48 h): 19.80 times | average radiation intensity, times that of HHMA ([1]; 48 h): 25.64 times | average radiation intensity, times that of SM-102 ([1]; 48 h): 24.71 times | average radiation intensity, times that of compound 21 ([1]; 48 h): 25.15 times | average radiation intensity, times that of compound 23 ([1]; 48 h): 23.54 times | mRNA expression level, times that of YK-204 ([1]; 48 h): 309.43 times | mRNA expression level, times that of YK-223 ([1]; 48 h): 1113.57 times | average radiation intensity (mRNA expression) ([1]; 48 h): 755000 | expression level, times that of YK-215 ([1]; 48 hours): 207.42 times | expression level, times that of YK-217 ([1]; 48 hours): 737.30 times | average radiation intensity, times that of ALC-0315 ([1]; 7 d): 5.09 times | average radiation intensity, times that of HHMA ([1]; 7 d): 6.31 times | average radiation intensity, times that of SM-102 ([1]; 7 d): 5.68 times | average radiation intensity, times that of compound 21 ([1]; 7 d): 5.49 times | average radiation intensity, times that of compound 23 ([1]; 7 d): 5.75 times | expression level, times that of YK-215 ([1]; 7 d): 32.87 times | expression level, times that of YK-217 ([1]; 7 d): 64.10 times | mRNA expression level, times that of YK-204 ([1]; 7 d): 44.46 times | mRNA expression level, times that of YK-223 ([1]; 7 d): 76.19 times | average radiation intensity (mRNA expression) ([1]; 7 d): 33524 | mRNA expression level in mice can reach, times that of SM-102 ([1]; time point not stated): 24 times | RLU / cell transfection efficiency, times that of ALC-0315 ([2]; Fluc-mRNA LNP): 13.95 times | RLU / cell transfection efficiency, times that of HHMA ([2]; Fluc-mRNA LNP): 14.27 times | RLU / cell transfection efficiency, times that of Lipofectamine 3000 ([2]; Fluc-mRNA LNP): 24.94 times | RLU / cell transfection efficiency, times that of YK-009 ([2]; Fluc-mRNA LNP): 5.84 times | RLU / cell transfection efficiency, times that of compound 21 ([2]; Fluc-mRNA LNP): 21.08 times and 21 times | RLU / cell transfection efficiency, times that of compound 23 ([2]; Fluc-mRNA LNP): 22.49 times and 22 times | cell transfection efficiency, times that of YK-223 ([2]; Fluc-mRNA LNP): 399.37 times | cell transfection efficiency, times that of YK-224 ([2]; Fluc-mRNA LNP): 340.35 times | cell transfection efficiency, times that of YK-226 ([2]; Fluc-mRNA LNP): 519.55 times | fluorescence absorption value / cell transfection efficiency, times that of YK-203 ([2]; Fluc-mRNA LNP): 7.74 times | fluorescence absorption value / cell transfection efficiency, times that of YK-204 ([2]; Fluc-mRNA LNP): 82 times and 82.30 times | fluorescence absorption value / cell transfection efficiency, times that of YK-205 ([2]; Fluc-mRNA LNP): 29.11 times | fluorescence absorption value / cell transfection efficiency, times that of YK-208 ([2]; Fluc-mRNA LNP): 7.76 times | fluorescence absorption value / cell transfection efficiency, times that of YK-210 ([2]; Fluc-mRNA LNP): 6.47 times | fluorescence absorption value / cell transfection efficiency, times that of YK-211 ([2]; Fluc-mRNA LNP): 21.87 times | fluorescence absorption value / cell transfection efficiency, times that of YK-212 ([2]; Fluc-mRNA LNP): 7.66 times | fluorescence absorption value / cell transfection efficiency, times that of YK-213 ([2]; Fluc-mRNA LNP): 21.95 times | fluorescence absorption value / cell transfection efficiency, times that of YK-214 ([2]; Fluc-mRNA LNP): 6.54 times | fluorescence absorption value / cell transfection efficiency, times that of YK-215 ([2]; Fluc-mRNA LNP): 30.53 times | fluorescence absorption value / cell transfection efficiency, times that of YK-216 ([2]; Fluc-mRNA LNP): 13.14 times | fluorescence absorption value / cell transfection efficiency, times that of YK-217 ([2]; Fluc-mRNA LNP): 416.94 times | fluorescence absorption value / cell transfection efficiency, times that of YK-218 ([2]; Fluc-mRNA LNP): 49.35 times | fluorescence absorption value / cell transfection efficiency, times that of YK-219 ([2]; Fluc-mRNA LNP): 19.89 times | fluorescence absorption value / cell transfection efficiency, times that of YK-220 ([2]; Fluc-mRNA LNP): 138.44 times | fluorescence absorption value, times that of YK-222 ([2]; Fluc-mRNA LNP): 49.41 times | Relative light unit (RLU) ([2]; LNP containing 0.3 μg Fluc-mRNA, 24 hours): 29957419 RLU | Multiples of values that equivalent to YK-201 ([2]; RLU of YK-201 / RLU of the named lipid): 0.95 | Multiples of values that equivalent to YK-202 ([2]; RLU of YK-202 / RLU of the named lipid): 1.00 | drug loading concentration, times that of ALC-0315 [3]: 1.42 times | drug loading concentration, times that of HHMA [3]: 1.21 times | drug loading concentration, times that of SM-102 [3]: 1.46 times | drug loading concentration, times that of YK-009 [3]: 1.38 times | drug loading concentration, times that of compound 21 [3]: 1.64 times | drug loading concentration, times that of compound 23 [3]: 1.79 times | total RNA concentration, times that of ALC-0315 [3]: 1.16 times | total RNA concentration, times that of HHMA [3]: 1.14 times | total RNA concentration, times that of SM-102 [3]: 1.22 times | total RNA concentration, times that of YK-009 [3]: 1.11 times | total RNA concentration, times that of compound 21 [3]: 1.40 times | total RNA concentration, times that of compound 23 [3]: 1.32 times | Drug loading concentration [3, 4]: 37.08 µg/mL | Encapsulation rate [3, 4]: 86.3% | Total RNA concentration [3, 4]: 42.98 µg/mL | encapsulation rate higher than that of ALC-0315 ([3]; difference of rates): 23.50% | encapsulation rate higher than that of HHMA ([3]; difference of rates): 25.80% | encapsulation rate higher than that of SM-102 ([3]; difference of rates): 24.00% | encapsulation rate higher than that of YK-009 ([3]; difference of rates): 23.30% | encapsulation rate higher than that of compound 21 ([3]; difference of rates): 28.50% | encapsulation rate higher than that of compound 23 ([3]; difference of rates): 31.10%
